Among the data in ChEMBL document CHEMBL1133274 (Bioorg Med Chem Lett, 2000) are IC50 values, retold here.

Assay [1] is filed under the species Homo sapiens. Description: Cytotoxicity of compound was determined against Lo Vo colon cancer cells in presence of GUS from Escherichia coli. It is filed as functional, cell-based. Conditions: Cancer cell lines.
The species named for assay [2] is Homo sapiens. Nature of the assay: Cytotoxicity of compound was determined against Lo Vo colon cancer cells. The class given is functional, cell-based. Conditions: Cancer cell lines.

Broadly, the IC50 is the point on the concentration scale where inhibition reaches its midpoint. As for `O=C(O)[C@@H]1O[C@@H](Oc2ccc(COC(=O)N(CCCl)CCCl)cc2[N+](=O)[O-])[C@@H](O)[C@@H](O)[C@@H]1O`, the results for the IC50 in the assay listed under Homo sapiens [1] and in the assay filed under Homo sapiens [2] were 95 µM and above 400 µM, respectively.
